Data on eight compounds can be found in patent publication US11384381B2, “Reaction accelerating agent” (Kikkoman Corporation, priority 2016, dated 2022).

For one assay, the system named is CFP-DH4 (A1cOX). The assay is described as follows: Acceleration of HbA1c detection reaction with small amount of A1cOX (Example 5). Type of assay: biochemical. To be noted: 0.04% (w/v) compound, 1.1 mg/ml CFP-DH4; for effect of accelerating the HbA1c detection reaction: versus not added; for Degree of progression of reaction (%) after 7.5 minutes / Degree of progression of reaction (%) after 10 minutes: HbA1c detection reaction, ΔA/ΔA100%; for Degree of progression of reaction (%) after 7.5 minutes: 2.5 minutes after addition of second reagent, not added: 51; for Degree of progression of reaction (%) after 10 minutes: 5 minutes after addition of second reagent, not added: 73. Here is the method: Next, in this Example, the degree of acceleration of HbA1c detection reaction by the compound of the present invention was determined using a small amount of A1cOX.
A reagent for HbA1c measurement having the following composition was prepared, and the measurement of HbA1c was carried out using Bio Majesty JCA-BM1650 (manufactured by JEOL Ltd.).
Blood cells (10.4% HbA1c (NGSP value))
30 mM MOPS-NaOH buffer solution, pH 6.5
0.2% (w/v) n-dodecyl-3-D-maltoside (manufactured by Dojindo Laboratories)
(§1) 10 U/ml peroxidase PEO-301 (Toyobo Co., Ltd.)
(§2) 0.023 mM 10-(carboxymethylaminocarbonyl)-3,7-bis(dimethylamino)phenothiazine sodium (DA-67, manufactured by Wako Pure Chemical Industries, Ltd.)
0.04% (w/v) of the compound of Comparative Example 2, any one compound of the present invention, or compound-free (Comparative Example 1) ion-exchange water as shown in Table 2
10 mM MOPS-NaOH buffer solution, pH 6.5
1.1 mg/ml CFP-DH4 (A cOX)
8 μl of the sample diluted 51-fold with ion-exchange water was added to 96 μl of the first reagent, and the mixture was incubated at 37° C. for 5 minutes. Then, 24 μl of the second reagent-B was added thereto, and the quantitative reaction of hydrogen peroxide resulting from the oxidation of the β-chain amino terminus of HbA1c was allowed to progress at 37° C. for 5 minutes. The absorbance ([…] and A751) of the reaction solution for light at wavelengths of 694 nm and 751 nm was measured over time for 10 minutes after the mixing of the diluted sample with the first reagent to determine the value of subtraction of A751 from A694, i.e., the value A694/751. Subsequently, ΔA was calculated by subtracting, from A694/751, the value of (104/128) times A694/751 4.8 minutes after the mixing of the diluted sample with the first reagent. Incidentally, […] after the mixing of the diluted sample with the first reagent represents the time immediately before the addition of the second reagent-B.
Next, ΔA calculated in this Example was divided by ΔA100% defined in Example 4 to calculate the degree of progression of HbA1c detection reaction. The degree of progression of HbA1c detection reaction 7.5 and 10 minutes after the mixing of the diluted sample with the first reagent (in other words, 2.5 and 5 minutes after the addition of the second reagent-B) is shown in Table 2.

Assay [1] deals with fructosyl peptide oxidase (FPOX-CET). Nature of the assay: Fructosyl valyl histidine detection reaction completed with excess fructosyl peptide oxidase (Example 6). To be noted: 0.04% (w/v) compound, 4.8 U/ml FPOX-CET (excess), 32 μM fructosyl valyl histidine, pH 7.0, 37° C.; for ΔA9 min: change in A694-A751 9 minutes after mixing; for ΔA10 min: change in A694-A751 10 minutes after mixing, defined as ΔA100%. Type of assay: biochemical. Here is the method:
In this Example the amount of change in absorbance is determined when the detection reaction of the substrate fructosyl valyl histidine was completed using an excess amount of fructosyl peptide oxidase (FPOX-CET), which is an oxidase.
A reagent for fructosyl valyl histidine measurement having the following composition was prepared, and the measurement of fructosyl valyl histidine using fructosyl peptide oxidase was carried out using Bio Majesty JCA-BM1650 (manufactured by JEOL Ltd.).
32 μM fructosyl valyl histidine (manufactured by Kikkoman Biochemifa Company)
30 mM MOPS-NaOH buffer solution, pH 7.0
0.2% (v/v) Triton X-100 (manufactured by Wako Pure Chemical Industries, Ltd.)
as §1, §2
0.04% (w/v) of the compound of Comparative Example 2, any one compound of the present invention, or compound-free (Comparative Example 1) ion-exchange water as shown in Table 1
10 mM MOPS-NaOH buffer solution, pH 7.0
4.8 U/ml FPOX-CET (manufactured by Kikkoman Biochemifa Company)
8 μl of the sample was added to 96 μl of the first reagent-B, and the mixture was incubated at 37° C. for 5 minutes. Then, 24 μl of the second reagent-C was added thereto, and the quantitative reaction of hydrogen peroxide resulting from the oxidation of fructosyl valyl histidine was allowed to progress at 37° C. for 5 minutes. The absorbance (A694 and A751) of the reaction solution for light at wavelengths of 694 nm and 751 nm was measured over time for 10 minutes after the mixing of the sample with the first reagent-B to determine the value of subtraction of A751 from A694, i.e., the value A694/751. Subsequently, ΔA was calculated by subtracting, from […], the value of (104/128) times A694/751 4.8 minutes after the mixing of the sample with the first reagent-B. Incidentally, 4.8 minutes after the mixing of the sample with the first reagent-B represents the time immediately before the addition of the second reagent-C. ΔA 9 minutes and 10 minutes after the mixing of the diluted sample with the first reagent-B (ΔA9min and ΔA10min) are shown in Table 3.
In other words, it can be recognized that the quantitative reaction of fructosyl valyl histidine, i.e., the quantitative reaction of hydrogen peroxide resulting from the oxidation of fructosyl valyl histidine, was completed in 10 minutes after the mixing of the diluted sample with the first reagent-B. Accordingly, in Examples 6 and 7, ΔA10min in each Comparative Example or the present invention was defined as ΔA when 100% of the quantitative reaction of […] progressed under each condition (ΔA100%).

With Xylene Fast Yellow 2G, in the assay on CFP-DH4 (A1cOX), the “effect of accelerating the HbA1c detection reaction” value (“effect” below) is on record as “effect of accelerating the HbA1c detection reaction”, the “Degree of progression of reaction (%) after 7.5 minutes” value (from here on “Degree … (%) after 7.5 minutes”) is listed as 58% and the “Degree of progression of reaction (%) after 10 minutes” value (shortened to “Degree … (%) after 10 minutes”) was found to be 83%. For the same compound, in assay [1], the ΔA9 min was 0.027 and the ΔA10 min is recorded as 0.027.

Consider `O=S(=O)([O-])c1cccc(N=Nc2ccc(Nc3ccccc3)cc2)c1.[Na+]` [Acid Yellow 36], for which, in the assay with CFP-DH4 (A1cOX), the “effect” value was “effect of accelerating the HbA1c detection reaction”, the “Degree … (%) after 7.5 minutes” value is reported as 53% and the “Degree … (%) after 10 minutes” value stood at 81%.

`O=C([O-])c1cc(N=Nc2ccc([N+](=O)[O-])cc2)ccc1O.[Na+]` [Mordant Orange 1]: in the assay on CFP-DH4 (A1cOX), the “effect” value is “effect of accelerating the HbA1c detection reaction”, the “Degree … (%) after 7.5 minutes” value was 80% and the “Degree … (%) after 10 minutes” value came out at 94%.

On to `O=C(O)c1cc(N=Nc2ccc3cc(S(=O)(=O)O)ccc3c2)ccc1O.[Na]` [Chrome Yellow], for which, in the assay with CFP-DH4 (A1cOX), the “effect” value is recorded as “effect of accelerating the HbA1c detection reaction”, the “Degree … (%) after 7.5 minutes” value came out at 53% and the “Degree … (%) after 10 minutes” value is given as 77%. For the same compound, in assay [1], the ΔA9 min was 0.064 and the ΔA10 min turned out to be 0.064.

`O=C([O-])c1cc(N=Nc2cccc([N+](=O)[O-])c2)ccc1O.[Na+]` [Alizarin Yellow GG]: in the assay on CFP-DH4 (A1cOX), the “effect” value is reported as “effect of accelerating the HbA1c detection reaction”, the “Degree … (%) after 7.5 minutes” value worked out at 76% and the “Degree … (%) after 10 minutes” value is listed as 91%.

For the compound `COc1cc(N=Nc2cccc(S(=O)(=O)[O-])c2)ccc1NC(=O)Nc1ccc(N=Nc2ccc(O)c(C(=O)[O-])c2)cc1.[Na+].[Na+]` [Direct Yellow 44], in the assay on CFP-DH4 (A1cOX), the “effect” value is reported as “effect of accelerating the HbA1c detection reaction”, the “Degree … (%) after 7.5 minutes” value was 77% and the “Degree … (%) after 10 minutes” value was 96%. In assay [1], this compound returned a ΔA9 min of 0.043 and a ΔA10 min of 0.043.

Consider `Cc1nn(-c2cc(S(=O)(=O)[O-])ccc2Cl)c(O)c1N=Nc1ccccc1.[Na+]` [Acid Yellow 34], for which, in the assay with CFP-DH4 (A1cOX), the “effect” value is on record as “effect of accelerating the HbA1c detection reaction”, the “Degree … (%) after 7.5 minutes” value was found to be 75% and the “Degree … (%) after 10 minutes” value is on record as 95%. In assay [1], this compound showed a ΔA9 min of 0.032 and a ΔA10 min of 0.033.

As for Acid Red 151, in the assay with CFP-DH4 (A1cOX), the “effect” value is reported as “effect of accelerating the HbA1c detection reaction”, the “Degree … (%) after 7.5 minutes” value came to 55% and the “Degree … (%) after 10 minutes” value came out at 80%.
